Laboratory results: publication PMC4483166, “Structural Basis of Specific Recognition of Non-Reducing Terminal N-Acetylglucosamine by an Agrocybe aegerita Lectin” (PLoS ONE, 2015)
pKd: −log10 of the molar value. Read-outs that look alike come from different tables or passages of the source.

Tests used:
[1] = molecular target: T1, Agrocybe aegerita lectin 2 (AAL2) (Cyclocybe aegerita, UniProt H6CS64); assay: crystal structure of the complex ([…] Å) and SPR steady-state affinity; format: binding
T1 construct: gene aal-2; recombinant AAL2 without any tag, expressed in E. coli BL21 (DE3); 407 amino acid residues
T1 sequence (H6CS64 1-407): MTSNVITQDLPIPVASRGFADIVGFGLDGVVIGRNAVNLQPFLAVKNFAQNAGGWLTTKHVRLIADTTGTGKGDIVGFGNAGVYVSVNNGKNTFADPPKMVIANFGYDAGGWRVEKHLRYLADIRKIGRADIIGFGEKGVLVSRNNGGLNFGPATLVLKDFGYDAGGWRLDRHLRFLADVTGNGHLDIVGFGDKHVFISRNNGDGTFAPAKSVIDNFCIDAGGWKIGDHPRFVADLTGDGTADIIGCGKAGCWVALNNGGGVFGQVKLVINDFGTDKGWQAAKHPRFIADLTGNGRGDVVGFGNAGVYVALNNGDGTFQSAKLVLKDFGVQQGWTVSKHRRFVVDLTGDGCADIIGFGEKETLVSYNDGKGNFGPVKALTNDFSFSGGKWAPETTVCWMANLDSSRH

[2] = molecular target: T1, Agrocybe aegerita lectin 2 (AAL2); assay: as above; format: binding; remark: listed apart in the source

| SMILES | pKd [1] | pKd [2] |
| --- | --- | --- |
| CC(=O)N[C@H]1[C@H](O[C@H]2[C@@H](O)[C@@H](CO)O[C@@H](O[C@H]3[C@H](O)[C@@H](NC(C)=O)C(O)O[C@@H]3CO)[C@@H]2O)O[C@H](CO)[C@@H](O)[C@@H]1O (some centres unmarked) [GlcNAcβ1-3Galβ1-4GlcNAc] | 4.38 | – |
| CC(=O)N[C@@H]1[C@@H](O)[C@H](O)[C@@H](CO)O[C@H]1O [GlcNAc] | – | 4.55 |
